The values that follow come from DBAASP.

Some test systems named below: Escherichia coli 078; Escherichia coli K88; Escherichia coli K99; Escherichia coli UB1005; Staphylococcus aureus.
Holding throughout (experiment): ≥ marks a high value that may be exact or a test limit, other limits are often not marked, values filed in µg/mL are converted to µM
The subject of assay [1] is Candida parapsilosis CGMCC 2.3989.
Assay [2] has as its system Candida tropicalis CGMCC 2.1975.
In assay [3] the test system is Pseudomonas aeruginosa ATCC 27853.
The subject of assay [4] is Salmonella enterica subsp. enterica serovar Pullorum ATCC 7913.
Assay [5] deals with Salmonella enterica subsp. enterica serovar Typhimurium ATCC 14028.
Assay [6] deals with Salmonella enterica subsp. enterica serovar Typhimurium C77-31.
The subject of assay [7] is Staphylococcus aureus ATCC 25923.
Assay [8] relates to Staphylococcus aureus ATCC 43300.
Assay [9] deals with Staphylococcus epidermidis ATCC 12228.
In assay [10] the test system is Pseudomonas aeruginosa PAK.
The test system of assay [11] is Streptococcus gordonii Challis DL1.
Assay [12] deals with Streptococcus mitis ATCC 903.
Assay [13] relates to Streptococcus mutans UA159.
Assay [14] relates to Streptococcus sanguinis NY101.
The test system of assay [15] is Bacillus subtilis ATCC 6633.
Assay [16] concerns Candida albicans ATCC 90028.
Assay [17] concerns Escherichia coli ATCC 8739.
Assay [18] relates to Staphylococcus aureus ATCC 6538.
Assay [19] relates to Bacillus subtilis CMCC 63501.
Assay [20] concerns Salmonella typhimurium ATCC 7731.
In assay [21] the test system is Staphylococcus aureus ATCC 29213.
The test system of assay [22] is Acinetobacter baumannii ATCC 19606.
Assay [23] relates to Cryptococcus neoformans ATCC 208821.
For assay [24], the system named is Escherichia coli ATCC 25922.
Assay [25] deals with Klebsiella pneumoniae ATCC 700603.

Structures are written as SMILES. Values after ≈ are worked out from the molar mass of the structure shown. Values joined by “and” are separate entries in the source; they are usually repeats but may differ in a detail not shown here. Identical values can stand only once.

The MIC is the smallest concentration in the dilution series that meets the test's criterion for growth inhibition. A higher MIC goes with weaker potency. With `CC[C@H](C)[C@H](NC(=O)[C@H](CCCN=C(N)N)NC(=O)[C@H](C)NC(=O)[C@H](C)N)C(=O)N[C@H](C(=O)N[C@@H](CC(C)C)C(=O)N[C@@H](CCCN=C(N)N)C(=O)N[C@@H](CC(C)C)C(=O)N[C@@H](CCCN=C(N)N)C(=O)N[C@@H](Cc1ccccc1)C(=O)N[C@@H](CCCN=C(N)N)C(N)=O)[C@@H](C)CC` [AARIILRLRFR], the minimum inhibitory concentration (MIC) in assay [1] came to 4 µM (≈ 5.54 µg/mL); in assay [2], 4 µM (≈ 5.54 µg/mL); against Escherichia coli 078 it was 4 µM (≈ 5.54 µg/mL); in the assay on Escherichia coli K88, 4 µM (≈ 5.54 µg/mL); against Escherichia coli K99, 2 µM (≈ 2.77 µg/mL); in the assay on Escherichia coli UB1005, 4 µM (≈ 5.54 µg/mL). The minimal inhibitory concentration (MIC) in assay [3] is 8 µM (≈ 11.1 µg/mL); in assay [4], 4 µM (≈ 5.54 µg/mL); in [5] it was 4 µM (≈ 5.54 µg/mL); in assay [6] it was 4 µM (≈ 5.54 µg/mL); in [7], 2 µM (≈ 2.77 µg/mL); in assay [8], 2 µM (≈ 2.77 µg/mL). Further, in assay [9], the minimum inhibitory concentration (MIC) was found to be 2 µM (≈ 2.77 µg/mL).
As for `CC[C@H](C)[C@H](NC(=O)[C@H](Cc1ccccc1)NC(=O)[C@H](Cc1cnc[nH]1)NC(=O)[C@H](CCCCN)NC(=O)[C@@H](NC(=O)[C@@H](N)Cc1ccccc1)[C@@H](C)CC)C(=O)N[C@@H](Cc1cnc[nH]1)C(=O)N[C@@H](CCCN=C(N)N)C(=O)N[C@@H](Cc1ccccc1)C(=O)NCC(=O)NCC(=O)NCC(=O)N[C@@H](CCCN=C(N)N)C(=O)N[C@@H](Cc1c[nH]c2ccccc12)C(=O)N[C@@H](CCCN=C(N)N)C(=O)N[C@@H](Cc1c[nH]c2ccccc12)C(=O)N[C@@H](CCCN=C(N)N)C(=O)N[C@@H](Cc1c[nH]c2ccccc12)C(=O)N[C@@H](Cc1ccccc1)C(N)=O` [FIKHFIHRFGGGRWRWRWF], the minimum inhibitory concentration (MIC) came out at 24.1 µM (≈ 62.5 µg/mL) in [10]; 12.4 µM (≈ 32 µg/mL) against Staphylococcus aureus; 12.4 µM (≈ 32 µg/mL) in assay [11]; 12.4 µM (≈ 32 µg/mL) in [12]; 3.09 µM (≈ 8 µg/mL) in [13]; 12.4 µM (≈ 32 µg/mL) in [14].
Turning to `CC[C@H](C)[C@H](NC(=O)CN)C(=O)N[C@@H](Cc1ccccc1)C(=O)N[C@@H](CO)C(=O)N[C@@H](CC(C)C)C(=O)N[C@H](C(=O)N[C@@H](CCCCN)C(=O)NCC(=O)N[C@@H](C)C(=O)N[C@@H](C)C(=O)N[C@@H](CCCCN)C(=O)N[C@@H](CC(C)C)C(=O)N[C@H](C(=O)N[C@H](C(=O)N[C@@H](CCCCN)C(=O)N[C@H](C(=O)N[C@H](C(=O)N[C@@H](C)C(=O)N[C@@H](CCCCN)C(=O)N[C@@H](CCC(=O)O)C(=O)N[C@@H](C)C(=O)NCC(=O)N[C@@H](CCCCN)C(=O)N[C@H](C(=O)NCC(=O)N[C@@H](CC(C)C)C(=O)N[C@@H](CCC(=O)O)C(=O)N[C@@H](CC(C)C)C(=O)N[C@@H](CCSC)C(=O)N[C@@H](C)C(=O)N[C@H]1CSSC[C@@H](C(=O)O)NC(=O)[C@H](CCC(N)=O)NC(=O)[C@H](CC(N)=O)NC(=O)[C@H]([C@@H](C)O)NC(=O)[C@H](C(C)C)NC(=O)[C@H](CCCCN)NC1=O)[C@@H](C)O)C(C)C)[C@@H](C)O)[C@@H](C)O)[C@@H](C)CC)[C@@H](C)CC` [GIFSLIKGAAKLITKTVAKEAGKTGLELMACKVTNQC], the MIC was 6.3 µM (≈ 24.2 µg/mL) in assay [15]; at least 100 µM in assay [16]; 12.5 µM (≈ 47.9 µg/mL) in assay [17]; 25 µM (≈ 95.9 µg/mL) in assay [8]; 3.1 µM (≈ 11.9 µg/mL) in assay [18].
With `CC[C@H](C)[C@H](NC(=O)[C@H](C)NC(=O)[C@H](CCCCN)NC(=O)[C@H](Cc1ccc(O)cc1)NC(=O)[C@H](CC(C)C)NC(=O)[C@H](C)NC(=O)[C@@H](NC(=O)[C@@H](NC(=O)[C@H](CC(N)=O)NC(=O)[C@@H](NC(=O)[C@H](C)NC(=O)[C@@H](NC(=O)[C@@H]1CCCN1C(=O)[C@@H](NC(=O)[C@H](CC(C)C)NC(=O)[C@@H]1CCCN1C(=O)[C@H](Cc1c[nH]c2ccccc12)NC(=O)[C@H](Cc1ccccc1)NC(=O)[C@H](CCCN=C(N)N)NC(=O)[C@@H](N)CCCCN)C(C)C)C(C)C)[C@@H](C)CC)[C@@H](C)O)C(C)C)C(=O)N[C@@H](CCCN=C(N)N)C(=O)N[C@@H](CCCN=C(N)N)C(=O)N[C@@H](CCCCN)C(N)=O` [KRFWPLVPVAINTVALYKAIRRK], the MIC in assay [19] is 4 µM (≈ 11 µg/mL); in the assay on Escherichia coli UB1005 it was 4 µM (≈ 11 µg/mL); in [3] it was 4 µM and > 2 µM; in assay [5], 4 µM (≈ 11 µg/mL); in [20], 2 µM (≈ 5.48 µg/mL); in assay [21], 4 µM (≈ 11 µg/mL). The compound further came in with an MIC in [9] of 4 µM (≈ 11 µg/mL).
Regarding `CC[C@H](C)[C@H](NC(=O)[C@H](CCCCN)NC(=O)[C@H](CC(=O)O)NC(=O)[C@H](CC(C)C)NC(=O)[C@@H](NC(=O)[C@H](CCCN=C(N)N)NC(=O)[C@H](CC(C)C)NC(=O)[C@H](CC(C)C)NC(=O)[C@H](CC(C)C)NC(=O)[C@H](CCCCN)NC(=O)[C@H](CC(N)=O)NC(=O)[C@@H](NC(=O)[C@H](CCCCN)NC(=O)[C@H](CCCCN)NC(=O)[C@@H]1CCCN1)[C@@H](C)CC)[C@@H](C)CC)C(=O)N[C@@H](C)C(=O)N[C@@H](CO)C(=O)N[C@@H](Cc1ccccc1)C(=O)N[C@@H](CO)C(=O)O` [PKKINKLLLRILDKIASFS], in assay [17], the MIC came out at 14.6 µM (≈ 32 µg/mL).
As for `CC[C@H](C)[C@H](NC(=O)[C@H](C)NC(=O)[C@@H](NC(=O)[C@H](CCCCN)NC(=O)[C@H](CCCCN)NC(=O)[C@H](Cc1cnc[nH]1)NC(=O)[C@@H](NC(=O)[C@H](CCCCN)NC(=O)[C@H](CS)NC(=O)[C@@H](NC(=O)[C@@H](NC(=O)[C@H](CCCN=C(N)N)NC(=O)[C@@H](NC(=O)[C@H](C)NC(=O)[C@H](CC(C)C)NC(=O)[C@H](CCCCN)NC(=O)[C@@H]1CCCN1)[C@@H](C)CC)[C@@H](C)CC)[C@@H](C)O)[C@@H](C)CC)C(C)C)C(=O)N[C@@H](CO)C(=O)N[C@H](C(=O)O)C(C)C` [PKLAIRITCKIHKKVAISV], the figures for the MIC in [17] and in [7] were 30.2 µM (≈ 64 µg/mL) and 121 µM (≈ 256 µg/mL), respectively.
For the compound `CC[C@H](C)[C@H](NC(=O)[C@H](CCCCN)NC(=O)[C@H](CCCCN)NC(=O)[C@H](CCCCN)NC(=O)[C@@H](NC(=O)[C@H](CCCN=C(N)N)NC(=O)[C@@H](NC(=O)[C@H](CC(C)C)NC(=O)[C@H](CC(C)C)NC(=O)[C@H](CCCCN)NC(=O)[C@H](CCSC)NC(=O)[C@@H]1CCCN1)C(C)C)C(C)C)C(=O)NCC(=O)N[C@@H](CC(=O)O)C(=O)N[C@@H](C)C(=O)N[C@@H](CC(C)C)C(=O)N[C@@H](CCC(=O)O)C(=O)N[C@@H](CC(C)C)C(=O)NCC(=O)O` [PMKLLVRVKKKIGDALELG], the minimum inhibitory concentration (MIC) in assay [17] is at least 60.7 µM.
On to `NC(=O)CC[C@H](NC(=O)[C@H](Cc1cnc[nH]1)NC(=O)[C@H](CO)NC(=O)[C@H](CCCN=C(N)N)NC(=O)[C@H](Cc1ccccc1)NC(=O)[C@H](Cc1cnc[nH]1)NC(=O)[C@H](CCCN=C(N)N)NC(=O)[C@H](Cc1cnc[nH]1)NC(=O)[C@H](Cc1cnc[nH]1)NC(=O)[C@@H](N)CO)C(=O)N[C@@H](CS)C(=O)N[C@@H](CCCN=C(N)N)C(=O)N[C@@H](CCCN=C(N)N)C(=O)O` [SHHRHFRSHQCRR], for which the MIC in assay [22] is above 18.3 µM; in assay [16], 18.3 µM (≈ 32 µg/mL); in [23], 4.59 µM (≈ 8 µg/mL); in assay [24] it was above 18.3 µM; in [25], above 18.3 µM; in assay [3] it was above 18.3 µM. The compound also showed an MIC in [8] of 18.3 µM (≈ 32 µg/mL).
